#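 Cells were grown in 96-well plates and exposed to each compound for 48 hours at five concentrations; endpoints were interpolated linearly between bracketing concentrations, or set to the highest concentration if not reached. GI50: concentration for 50% inhibition of growth. TGI: concentration producing complete growth inhibition.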
# Experiments:
# Experiment in all cases: growth of human tumour cells (NCI), 48 h
# [1] = tested on: HCC-2998 colon
# [2] = tested on: HOP-92 NSCLC
# [3] = tested on: HS 578T breast
# [4] = tested on: HT29 colon
# [5] = tested on: IGROV1 ovarian
# [6] = tested on: MALME-3M melanoma
# [7] = tested on: SK-MEL-5 melanoma
# [8] = tested on: U251 CNS
# [9] = tested on: UACC-257 melanoma
# [10] = tested on: UACC-62 melanoma
SMILES,GI50 [1],TGI [1],GI50 [2],TGI [2],GI50 [3],TGI [3],GI50 [4],TGI [4],GI50 [5],TGI [5],GI50 [6],TGI [6],GI50 [7],TGI [7],GI50 [8],TGI [8],GI50 [9],TGI [9],GI50 [10],TGI [10]
COc1ccc(-c2csc(-c3cc(Cl)cc(Cl)c3Cl)n2)cc1,44.6 µM,> 100 µM,27.6 µM,> 100 µM,46.8 µM,> 100 µM,47.5 µM,> 100 µM,56.8 µM,> 100 µM,81.1 µM,> 100 µM,32.2 µM,> 100 µM,60.2 µM,> 100 µM,62.7 µM,> 100 µM,41.9 µM,> 100 µM
Cc1ccc(S(=O)(=O)Cc2nc(-c3ccc(C(=O)NCc4cccnc4)cc3)oc2C)cc1,18.4 µM,> 100 µM,13 µM,> 100 µM,7.9 µM,> 100 µM,0.0784 µM,> 100 µM,0.189 µM,> 100 µM,27.5 µM,> 100 µM,2.85 µM,> 100 µM,1.01 µM,> 76.7 µM,> 100 µM,> 100 µM,> 91.2 µM,> 100 µM
Nc1c(C(=O)Nc2ccccc2F)sc2nc3c(cc12)C(=O)CCC3,2.2 µM,> 100 µM,0.121 µM,> 100 µM,2.01 µM,> 25.5 µM,0.531 µM,> 100 µM,2.92 µM,> 100 µM,1.44 µM,> 100 µM,0.382 µM,> 100 µM,1.23 µM,> 100 µM,> 100 µM,> 100 µM,0.654 µM,> 100 µM
COc1ccc(C(=O)/C=C/c2ccc(OCC(=O)N3CCN(c4ccccc4)CC3)cc2)cc1,,> 100 µM,,51.3 µM,,> 76.5 µM,,> 100 µM,,> 65.8 µM,,> 100 µM,,> 85.1 µM,,> 83.5 µM,,> 100 µM,,> 100 µM
CCCCn1sc(=O)n(Cc2ccc(CNC(=O)OCc3ccc4c(Br)cc(Br)c(O)c4n3)cc2)c1=O,4.25 µM,> 69.8 µM,1.41 µM,> 100 µM,0.959 µM,> 100 µM,28.6 µM,> 100 µM,0.531 µM,> 100 µM,0.831 µM,> 100 µM,0.55 µM,2.07 µM,0.659 µM,> 100 µM,> 100 µM,> 100 µM,0.916 µM,> 100 µM
CCN1C(=O)N(c2ccccc2)C2NN=c3s/c(=C4\C(=O)N(C(C)C)c5ccccc54)c(=O)n3C21 (stereo not drawn),3.5 µM,61.8 µM,1.44 µM,> 43.5 µM,1.06 µM,21.8 µM,1.08 µM,> 100 µM,1.55 µM,> 100 µM,1.57 µM,> 100 µM,1.04 µM,15.5 µM,1.44 µM,> 51.6 µM,> 51.8 µM,> 100 µM,0.626 µM,> 100 µM
C#CCOc1cccc(Nc2ncnc3ccc(NC(=O)CCl)cc23)c1,3.71 µM,22.7 µM,2.9 µM,16.9 µM,4.12 µM,> 100 µM,0.0981 µM,6.87 µM,0.164 µM,2.77 µM,3.46 µM,8.63 µM,3.37 µM,8.9 µM,0.364 µM,8.23 µM,7.49 µM,26 µM,1.65 µM,20.3 µM
CC1=C[S+](c2ccccc2)c2cccc3cc4ccccc4c1c23 (stereo not drawn),0.406 µM,1.58 µM,0.506 µM,2.43 µM,0.385 µM,14.8 µM,0.348 µM,2.12 µM,0.467 µM,3.11 µM,0.372 µM,2.22 µM,0.247 µM,0.776 µM,0.0458 µM,0.337 µM,0.315 µM,1.68 µM,0.305 µM,1.64 µM
CCCSC1=NC2C(N(CC)C(=O)N2CC)N1/N=C/C=C/c1ccccc1[N+](=O)[O-] (stereo not drawn),2.57 µM,9.27 µM,1.27 µM,8.47 µM,2.39 µM,> 100 µM,3.16 µM,> 100 µM,4.06 µM,> 100 µM,4.74 µM,> 100 µM,2.76 µM,10.3 µM,3.42 µM,> 100 µM,11 µM,> 100 µM,2.81 µM,> 100 µM
CCc1nc(Cl)nc(Cl)c1Cl,,2.24 µM,,5.16 µM,,9.39 µM,,5.04 µM,,13.7 µM,,1.57 µM,,7.71 µM,,3.32 µM,,1.87 µM,,19 µM
CC(=O)OCC1O[C@@H]([S-])C(OC(C)=O)[C@H](OC(C)=O)[C@@H]1OC(C)=O.[Au+].c1ccc(CN2[CH-]N(Cc3ccccc3)C(c3ccccc3)=C2c2ccccc2)cc1,1.96 µM,3.66 µM,1.74 µM,3.38 µM,2.51 µM,6.91 µM,,,,,1.77 µM,4.06 µM,1.79 µM,3.28 µM,1.61 µM,3.09 µM,1.84 µM,4.05 µM,1.76 µM,3.47 µM
O=C(O)C1(Cc2cccc(Nc3nccs3)n2)CCC(Oc2cccc(Cl)c2F)CC1 (stereo not drawn),18.2 µM,34.2 µM,13 µM,44.7 µM,10.4 µM,64 µM,7.56 µM,24.2 µM,15.9 µM,53.1 µM,20.5 µM,54.3 µM,14.8 µM,28.7 µM,24.4 µM,> 54.8 µM,31.6 µM,> 81.1 µM,,
CSc1ccc(/C=C/c2ccnc3ccccc23)cc1,,27.4 µM,,30.2 µM,,43.4 µM,,31 µM,,39.4 µM,,32.6 µM,,18.9 µM,,25.4 µM,,32.9 µM,,
